Assay results taken from patent publication US10259804B2, “Anti-endothelial lipase compounds and methods of using the same in the treatment and/or prevention of cardiovascular diseases” (Shifa Biomedical Corporation, priority 2014, dated 2019).

Columns and labels:
Format in all cases: biochemical
[1] = target: T1, human full-length HL (hepatic lipase) (Homo sapiens, UniProt P11150); assay: HL selectivity assay (phospholipase kit, resorufinoleate substrate); conditions: even at 200 uM compound concentration
T1 construct: We have cloned the human full-length EL, LPL, HL and PL; made in house; host or cells: HEK-293, transient transfection
T1 sequence (P11150 23-499): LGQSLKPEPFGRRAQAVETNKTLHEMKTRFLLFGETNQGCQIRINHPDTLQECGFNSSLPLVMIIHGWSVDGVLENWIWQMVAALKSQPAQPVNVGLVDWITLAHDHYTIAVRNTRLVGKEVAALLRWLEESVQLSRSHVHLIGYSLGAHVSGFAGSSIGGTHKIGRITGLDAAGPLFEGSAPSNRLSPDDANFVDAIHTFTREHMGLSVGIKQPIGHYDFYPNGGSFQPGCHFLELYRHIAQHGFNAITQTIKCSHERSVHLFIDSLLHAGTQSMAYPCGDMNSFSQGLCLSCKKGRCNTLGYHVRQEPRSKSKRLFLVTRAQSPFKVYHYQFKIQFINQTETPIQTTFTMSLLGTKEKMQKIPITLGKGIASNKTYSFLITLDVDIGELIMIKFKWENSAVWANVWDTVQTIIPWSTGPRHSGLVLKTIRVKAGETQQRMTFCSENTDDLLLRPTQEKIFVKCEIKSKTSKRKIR
Experimental: (§1) Preparation of constructs: We have cloned the human full-length EL, LPL, HL and PL. The cDNA encoding the EL, LPL, HL and PL sequence was cloned by PCR and subcloned into a mammalian expression vector containing the cytomegalovirus promoter-enhancer. The constructs were confirmed by sequence analysis.
(§2) Expression of EL, LPL, HL and PL in mammalian cells: The above constructs were used to transfect HEK-293 cells. The cells were seeded into T75 plates in a DMEM solution containing 10% Fetal Bovine Serum media and incubated overnight at 37° C. Cells were transiently transfected with various cDNA constructs using the Lipofectamine-LTX as described by the manufacturer (Invitrogen). After transfection, cells were then incubated for an additional 48 hours at 37° C. before being analyzed for expression. After 48 hours of incubation, following transfection, cells were collected for analysis by western blots for the expression of EL, LPL, HL and PL.
(§3) LPL, PL and HL selectivity assays: For measuring LPL, PL and HL activity, we used the commercially available phospholipase kit (MGT). The activity of the substrate, resorufinoleate is quite good for both phospholipase A1 and phospholipase A2, and therefore is ideal for LPL, PL and HL. Since the substrate is quite general for other lipases such as triacylglycerol lipases or lipoprotein lipases, we utilized our recombinant system and cell specific expression system to achieve the desired specificity. The LPL, PL and HL enzyme activity measurements were conducted using a 96-well microtiter plate. All appropriate controls were implemented.
(§4) Experiments were also performed to determine the specificity of our best compounds against the most closely related homologues, LPL, PL and HL.

[2] = target: T2, human full-length LPL (lipoprotein lipase) (Homo sapiens, UniProt P06858); assay: LPL selectivity assay (phospholipase kit, resorufinoleate substrate); conditions: even at 200 uM compound concentration
T2 construct: We have cloned the human full-length EL, LPL, HL and PL; made in house; host or cells: HEK-293, transient transfection
T2 sequence (P06858 28-475): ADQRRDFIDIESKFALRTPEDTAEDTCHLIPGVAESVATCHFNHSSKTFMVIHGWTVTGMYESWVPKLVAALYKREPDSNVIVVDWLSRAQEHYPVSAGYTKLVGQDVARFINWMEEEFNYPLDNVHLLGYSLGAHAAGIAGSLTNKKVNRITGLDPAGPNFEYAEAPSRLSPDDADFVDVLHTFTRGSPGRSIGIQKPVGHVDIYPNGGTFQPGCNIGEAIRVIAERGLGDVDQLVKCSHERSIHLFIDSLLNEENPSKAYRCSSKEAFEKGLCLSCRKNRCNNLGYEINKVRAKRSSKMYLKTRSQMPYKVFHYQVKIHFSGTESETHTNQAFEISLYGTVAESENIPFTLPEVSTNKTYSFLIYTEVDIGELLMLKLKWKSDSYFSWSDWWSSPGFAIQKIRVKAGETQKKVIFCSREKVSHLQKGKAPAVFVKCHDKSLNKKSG
Experimental: as §1, §2, §3, §4

[3] = target: T3, human full-length EL (endothelial lipase) (Homo sapiens, UniProt Q9Y5X9); assay: EL inhibition assay using cell extracts of HEK293/EL transfected cells; conditions: compound 0.001-200 μM, means of three experiments
T3 construct: We have cloned the human full-length EL, LPL, HL and PL; made in house; host or cells: HEK-293, transient transfection; cell extracts used
T3 sequence (Q9Y5X9 21-500): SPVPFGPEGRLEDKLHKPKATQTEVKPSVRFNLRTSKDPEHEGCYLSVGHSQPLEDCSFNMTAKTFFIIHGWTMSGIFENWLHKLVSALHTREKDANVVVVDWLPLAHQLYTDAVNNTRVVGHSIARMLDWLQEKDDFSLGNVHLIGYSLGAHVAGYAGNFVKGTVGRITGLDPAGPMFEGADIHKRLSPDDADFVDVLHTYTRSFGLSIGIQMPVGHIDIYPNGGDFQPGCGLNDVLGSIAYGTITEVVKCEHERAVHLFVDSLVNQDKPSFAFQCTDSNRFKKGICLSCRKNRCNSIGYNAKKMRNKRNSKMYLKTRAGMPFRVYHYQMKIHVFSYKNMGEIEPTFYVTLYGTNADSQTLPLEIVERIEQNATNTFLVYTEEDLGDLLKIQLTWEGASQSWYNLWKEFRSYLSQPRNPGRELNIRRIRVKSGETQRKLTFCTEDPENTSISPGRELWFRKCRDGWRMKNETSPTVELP
Experimental: as §1, §2
EL screening assay: We developed and implemented two assays (a) in assay one the HDL-C functions as a substrate for the assay. This assay measures the rate of HDL hydrolysis by EL that yields free fatty acids, which are then coupled through acyl-CoA synthetase, acyl-CoA oxidase and horseradish peroxidase to produce the fluorescent species, resorufin; (b) in assay two PED-A1, a novel fluorogenic phospholipase A1-selective substrate was used for EL measurements. […] Assay one was used for initial screening, while assay two was used for secondary screening and EL kinetics.
Characterization of the Hits: A library of compounds that modified both the urea and sulfonamide substituents on the 5-methyl furan were synthesized. The library was extensively analyzed for EL potency, and then the data was utilized to further optimize the compounds. Seven compounds were selected for potency, kinetic and selectivity confirmation.
In order to determine the Ki value, we used variable concentrations of the compound and variable substrate concentrations.

[4] = target: T4, human full-length PL (pancreatic lipase) (Homo sapiens, UniProt P16233); assay: PL selectivity assay (phospholipase kit, resorufinoleate substrate); conditions: even at 200 uM compound concentration
T4 construct: We have cloned the human full-length EL, LPL, HL and PL; made in house; host or cells: HEK-293, transient transfection
T4 sequence (P16233 17-465): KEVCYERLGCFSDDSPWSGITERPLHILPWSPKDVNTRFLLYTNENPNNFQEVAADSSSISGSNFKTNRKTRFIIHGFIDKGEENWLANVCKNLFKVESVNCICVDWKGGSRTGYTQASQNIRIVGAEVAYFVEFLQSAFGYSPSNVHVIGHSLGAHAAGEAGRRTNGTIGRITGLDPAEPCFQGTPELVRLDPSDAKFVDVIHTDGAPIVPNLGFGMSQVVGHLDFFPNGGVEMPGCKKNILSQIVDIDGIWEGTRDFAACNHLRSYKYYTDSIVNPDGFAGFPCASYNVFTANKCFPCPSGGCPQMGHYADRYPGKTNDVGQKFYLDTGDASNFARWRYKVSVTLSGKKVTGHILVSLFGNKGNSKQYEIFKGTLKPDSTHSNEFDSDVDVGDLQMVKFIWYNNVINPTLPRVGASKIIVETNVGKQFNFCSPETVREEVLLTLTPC
Experimental: as §1, §2, §3, §4

Structure (SMILES)	inhibition against HL activity [1]	inhibition against LPL activity [2]	IC50 [3] [nM]	inhibition against PL activity [4]
Cc1oc(S(=O)(=O)N2CCC(C(F)(F)F)CC2)cc1NC(=O)NC(c1ccccc1)C(F)(F)F (stereo not drawn) [SBC-140,472]	no inhibition	no inhibition	79	no inhibition
Cc1ccccc1NC(=O)Nc1cc(S(=O)(=O)N2CCC(C(F)(F)F)CC2)oc1C [SBC-140,466]	no inhibition	no inhibition	62	no inhibition
COC1CCN(S(=O)(=O)c2cc(NC(=O)NCc3ccccc3C(F)(F)F)c(C)o2)CC1 [SBC-140,460]	no inhibition	no inhibition	19	no inhibition
